Substitutions are numbered along the chain they refer to. pIC50: −log10 of the molar value. Like-named read-outs stand apart in the source and are kept apart here.
Key:
androgen receptor = target: T1, androgen receptor (Homo sapiens, UniProt P10275); test: AR antagonist cell assay (MDA-MB453-MMTV clone 54-19 luciferase reporter, 100 pM DHT); format: cell-based; details: MDA-MB453-MMTV clone 54-19, inhibition of 100 pM DHT induction, 17 hr; mean of multiple tests; read-out: AR Cell IC50
T1 sequence (P10275 1-920 Q868H): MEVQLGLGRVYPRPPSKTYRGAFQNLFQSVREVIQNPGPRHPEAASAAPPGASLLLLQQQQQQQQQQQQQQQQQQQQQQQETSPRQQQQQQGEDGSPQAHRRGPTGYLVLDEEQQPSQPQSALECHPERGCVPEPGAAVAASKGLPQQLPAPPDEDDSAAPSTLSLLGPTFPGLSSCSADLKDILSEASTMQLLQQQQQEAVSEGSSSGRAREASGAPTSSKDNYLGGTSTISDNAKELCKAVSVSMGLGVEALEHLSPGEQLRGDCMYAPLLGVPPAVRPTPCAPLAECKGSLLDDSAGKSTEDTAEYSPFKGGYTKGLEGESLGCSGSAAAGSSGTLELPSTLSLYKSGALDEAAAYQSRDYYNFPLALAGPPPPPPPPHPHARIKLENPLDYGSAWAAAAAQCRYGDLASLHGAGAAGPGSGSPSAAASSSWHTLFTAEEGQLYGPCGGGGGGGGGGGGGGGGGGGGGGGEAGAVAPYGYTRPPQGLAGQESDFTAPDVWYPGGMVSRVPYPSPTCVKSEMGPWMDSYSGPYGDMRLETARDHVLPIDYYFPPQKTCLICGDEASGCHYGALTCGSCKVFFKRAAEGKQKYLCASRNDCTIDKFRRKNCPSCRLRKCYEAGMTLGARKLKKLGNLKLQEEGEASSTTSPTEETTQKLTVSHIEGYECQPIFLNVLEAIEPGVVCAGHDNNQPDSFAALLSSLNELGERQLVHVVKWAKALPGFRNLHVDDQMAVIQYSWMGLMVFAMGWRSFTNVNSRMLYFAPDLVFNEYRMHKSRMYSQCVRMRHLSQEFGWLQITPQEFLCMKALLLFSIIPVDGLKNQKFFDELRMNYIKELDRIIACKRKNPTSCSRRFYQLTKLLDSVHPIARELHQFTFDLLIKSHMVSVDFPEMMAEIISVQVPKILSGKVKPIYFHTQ
Summary of the method: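 MDA-MB453 cells stably carrying an MMTV-ARE firefly luciferase reporter were plated overnight at 10,000/well in phenol-red-free, charcoal-stripped serum medium. Cells were stimulated with 100 pM DHT (final) for 17 hr at 37 °C, and AR antagonism was read as luciferase signal; values are means of multiple tests.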

[1] = target: T2, human androgen receptor (hAR) (Homo sapiens, UniProt P10275); test: Competitive binding analysis on baculovirus/Sf9 generated hAR extracts with 3H-DHT tracer; details: hAR extract, 1 nM 3H-DHT, one hour at 4° C, mean of multiple tests; for pIC50: read-out: AR Binding IC50; for IC50: AR Binding IC50 (nM)
T2 construct: made in house; host or cells: baculovirus/Sf9 insect cells (crude extract)
T2 sequence (P10275 1-920): T1 sequence (P10275 1-920 Q868H) with H868Q
Summary of the method: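 Baculovirus/Sf9-expressed hAR extract incubated with hydroxylapatite, 1 nM 3H-DHT and decreasing compound concentrations for 1 h at 4 °C, then washed three times to remove unbound tracer. Bound 3H-DHT compared with no-competitor maximum; affinity given as concentration inhibiting half of maximum binding, mean of multiple tests.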

Row | Structure (SMILES) | pIC50 (androgen receptor) | pIC50 [1] | IC50 [1] [nM]
1 | CC(C)CC(Oc1ccc(C#N)c(C(F)(F)F)c1)C(=O)NCCc1ccc(O)cc1 (stereo not drawn) [Example 61, 2-(4-Cyano-3-trifluoromethyl-phenoxy)-4-methyl-pentanoic acid-[2-(4-hydroxyphenyl)-ethyl]-amide] | 6.47 | 7.07 | 
2 | CC(C)CC(Oc1ccc(C#N)c(C(F)(F)F)c1)C(=O)NCCCc1cccnc1 (stereo not drawn) [Example 62, 2-(4-Cyano-3-trifluoromethyl-phenoxy)-4-methyl-pentanoic acid-(3-pyridin-3-ylpropyl)-amide] | < 6.00 | 6.72 | 
3 | CCCC(Oc1ccc(C#N)c(C(F)(F)F)c1)C(=O)NCCc1cccc(OC)c1 (stereo not drawn) [Example 64, 2-(4-Cyano-3-trifluoromethyl-phenoxy)-pentanoic acid-[2-(3-methoxy-phenyl)ethyl]-amide] | < 6.00 | 6.66 | 
4 | CCCC(Oc1ccc(C#N)c(C(F)(F)F)c1)C(=O)NCCc1c[nH]c2ccccc12 (stereo not drawn) [Example 65, 2-(4-Cyano-3-trifluoromethyl-phenoxy)-pentanoic acid [2-(1H-indol-3-yl)ethyl]amide] | 7.19 | 7.48 | 
5 | CCCC(Oc1ccc(C#N)c(C(F)(F)F)c1)C(=O)NCCc1ccc(O)cc1 (stereo not drawn) [Example 66] | 7.11 |  | 151
6 | CC(C)CC(Oc1ccc(C#N)c(C(F)(F)F)c1)C(=O)NCC(c1ccccc1)N(C)C (stereo not drawn) [Example 68, 2-(4-Cyano-3-trifluoromethyl-phenoxy)-4-methyl-pentanoic acid (2-dimethylamino-2-phenyl-ethyl)-amide] | < 6.00 | 6.65 | 
7 | COc1ccc(CNC(=O)C(CC(C)C)Oc2ccc(C#N)c(C(F)(F)F)c2)cn1 (stereo not drawn) [Example 72, 2-(4-Cyano-3-trifluoromethyl-phenoxy)-4-methyl-pentanoic acid-(6-methoxy-pyridin-3-yl-methyl)-amide] | 6.60 | 7.09 | 
8 | COc1ccc(CNC(=O)C(CC(C)C)Oc2ccc(C#N)c(C(F)(F)F)c2)cc1 (stereo not drawn) [Example 73, 2-(4-Cyano-3-trifluoromethyl-phenoxy)-4-methyl-pentanoic acid-4-methoxy-benzylamide] | 6.37 | 7.04 | 
9 | CC(C)CC(Oc1ccc(C#N)c(C(F)(F)F)c1)C(=O)NCc1ccc(O)c(O)c1 (stereo not drawn) [Example 74, 2-(4-Cyano-3-trifluoromethyl-phenoxy)-4-methyl-pentanoic acid-3,4-dihydroxy-benzylamide] | 6.01 | 6.86 | 
10 | Cc1ccc(NC(=O)C(CC(C)C)Oc2ccc(C#N)c(C(F)(F)F)c2)cc1O (stereo not drawn) [Example 78, 2-(4-Cyano-3-trifluoromethyl-phenoxy)-4-methyl-pentanoic acid (3-hydroxy-4-methyl-phenyl)-amide] | 6.02 | 6.92 | 
11 | CC(C)CC(Oc1ccc(C#N)c(C(F)(F)F)c1)C(=O)N(CCO)C(C)C (stereo not drawn) [Example 79, 2-(4-Cyano-3-trifluoromethyl-phenoxy)-4-methyl-pentanoic acid (2-hydroxy-ethyl)isopropyl-amide] | < 6.00 | 5.50 | 
12 | CCCOCCNC(=O)C(CC(C)C)Oc1ccc(C#N)c(C(F)(F)F)c1 (stereo not drawn) [Example 81, 2-(4-Cyano-3-trifluoromethyl-phenoxy)-4-methyl-pentanoic acid (2-propoxy-ethyl)amide] | < 6.00 | 6.85 | 
13 | CCC(COC)NC(=O)C(CC(C)C)Oc1ccc(C#N)c(C(F)(F)F)c1 (stereo not drawn) [Example 82, 2-(4-Cyano-3-trifluoromethyl-phenoxy)-4-methyl-pentanoic acid (1-methoxymethyl-propyl)-amide] | < 6.00 | 6.66 | 
14 | CSCCNC(=O)C(CC(C)C)Oc1ccc(C#N)c(C(F)(F)F)c1 (stereo not drawn) [Example 83, 2-(4-Cyano-3-trifluoromethyl-phenoxy)-4-methyl-pentanoic acid (2-methylsulfanyl-ethyl)-amide] | < 6.00 | 7.07 | 
15 | Cc1c(O)cccc1NC(=O)C(CC(C)C)Oc1ccc(C#N)c(C(F)(F)F)c1 (stereo not drawn) [Example 84, 2-(4-Cyano-3-trifluoromethyl-phenoxy)-4-methyl-pentanoic acid (3-hydroxy-2-methyl-phenyl)-amide] | < 6.00 | 6.95 | 
16 | CCCOCCCNC(=O)C(CC(C)C)Oc1ccc(C#N)c(C(F)(F)F)c1 (stereo not drawn) [Example 85, 2-(4-Cyano-3-trifluoromethyl-phenoxy)-4-methyl-pentanoic acid (3-propoxy-propyl)-amide] | < 6.00 | 6.93 | 
17 | CCN(CCOC)C(=O)C(CC(C)C)Oc1ccc(C#N)c(C(F)(F)F)c1 (stereo not drawn) [Example 86, 2-(4-Cyano-3-trifluoromethyl-phenoxy)-4-methyl-pentanoic acid ethyl(2-methoxyethyl)-amide] | < 6.00 | 7.60 | 
18 | COc1ccccc1NC(=O)C(CC(C)C)Oc1ccc(C#N)c(C(F)(F)F)c1 (stereo not drawn) [Example 87, 2-(4-Cyano-3-trifluoromethyl-phenoxy)-4-methyl-pentanoic acid (2-methoxy-phenyl)-amide] | < 6.00 | 6.92 | 
19 | CCCCC(Oc1ccc(C#N)c(C(F)(F)F)c1)C(=O)NCc1ccccc1 (stereo not drawn) [Example 91, 2-(4-Cyano-3-trifluoromethyl-phenoxy)-hexanoic acid benzylamide] | 6.27 | 7.15 | 
20 | CC(C)C(Oc1ccc(C#N)c(C(F)(F)F)c1)C(=O)NCc1ccccc1 (stereo not drawn) [Example 92, N-Benzyl-2-(4-Cyano-3-trifluoromethyl-phenoxy)-3-methyl-butyramide] | 6.25 | 6.46 | 
21 | CCC(Oc1ccc(C#N)c(C(F)(F)F)c1)C(=O)NCc1ccccc1 (stereo not drawn) [Example 93, N-Benzyl-2-(4-Cyano-3-trifluoromethyl-phenoxy)-butyramide] | 6.25 |  | 485
22 | CC(C)C[C@@H](Oc1ccc(C#N)c(C(F)(F)F)c1)C(=O)NCc1ccccc1 [Example 94, (R)-2-(4-Cyano-3-trifluoromethyl-phenoxy)-4-methyl-pentanoic acid benzylamide] | 6.85 |  | 66
23 | CCC[C@@H](Oc1ccc(C#N)c(C(F)(F)F)c1)C(=O)NCc1ccccc1 [Example 95, (R)-2-(4-Cyano-3-trifluoromethyl-phenoxy)-pentanoic acid benzylamide] | 7.49 |  | 126
24 | CCC[C@@H](Oc1ccc(C#N)c(C(F)(F)F)c1)C(=O)NCc1ccccc1C [Example 96, (R)-2-(Cyano-3-trifluoromethyl-phenoxy)-pentanoic acid 2-methyl-benzylamide] | 6.86 |  | 95
